Reference: patent US10287617B2, “Methods for in vitro—in vivo efficacy determination” (COLORADO STATE UNIVERSITY RESEARCH FOUNDATION, priority 2014, dated 2019)
≈ marks a conversion by molar mass, not a printed value. Entries after “also recorded” stand apart in the source; their conditions may differ. Like-named read-outs stand apart in the source and are kept apart here. Marks after values point to notes of the source that are not given here.

Legend:
[1] = test system: Mycobacteria tuberculosis; assay: MIC and drug response curve type (Tables A and B); assay type: cell-based, Mycobacterium tuberculosis; conditions: for Curve: drug response curve type; for MIC: in µg/mL
Description: A drug concentration response curve can be generated by graphing the log10 drug concentrations (μg/mL) against the difference in growth between the drug-treated wells and control wells. See FIG. 3C, and FIG. 5 (entries for SB-P23D8 and SB-P26D9). A NREBA is indicative of bacteriostatic activity above the MIC.
(§1) Further analysis using the methods described herein was performed on the compounds found in Tables A and B (bold font compounds are shown in FIG. 11) resulting in the data found therein.
MIC values were determined for the benzimidazoles using a modified 96-well microplate Alamar Blue (resazurin) assay (MABA) (see Kumar et al., J. Med. Chem. 2011; 54:374-381; Collins and Franzblau, Antimicrob. Agents Chemother. 1997; 41:1004-1009). Dose response curves were generated from the MABA assay for compounds by graphing the log10 drug concentrations against the difference in growth between the drug-treated wells and control wells using GraphPad Prism Version 5.0d for Mac OS X (GraphPad Software, San Diego Calif., USA, www.graphpad.com). For time dose studies, bacterial growth in the presence of compound was monitored by the O.D. 600 nm. […] The values were plotted against time using GraphPad Prism Version 5.0d for Mac OS X (GraphPad Software, San Diego Calif., USA, www.graphpad.com).

M. tuberculosis = assay: Benzimidazoles activity tested in animals (animal models of infection, Table A); assay type: in vivo, mouse; conditions: for Efficacy Lung / Efficacy Spleen: Table A
Description: as §1
Compound efficacy was assessed in two murine models of infection based on the short term model described previously (Lenaerts et al., Antimicrob. Agents Chemother. 2003; 47:783-785). All aerosol infections were performed using a Middlebrook aerosol generation devise (Glas-Col, Terre Haute, Ind.).

[2] = test system: non-replicating M. tuberculosis H37Rv; assay: Low oxygen study, non-replicating bacilli; assay type: cell-based, Mycobacterium tuberculosis; conditions: for Log10 (CFU+/−SD): 96 h post-treatment; for % Growth Reduction: benzimidazoles at 4 μg/mL; for Log10 (CFU) Reduction: vs control
Description: The low oxygen studies were performed similar to those described previously (Lenaerts et al., Antimicrob. Agents Chemother. 2005; 49:2294-2301). Briefly, M. tuberculosis H37Rv were diluted to an O.D. 600 nm of 0.003 in 7H9 media containing Methylene Blue (1.5 μg/mL) and were grown in 16×125 mm Hungate tubes with rubber septa (VWR cat#89167-170). The tubes, with 11 mL of the diluted cultures were incubated at 37° C. under agitation (150 rpm). […] One week after the reduction of methylene blue, approximately 28 days from the start, drug treatment was initiated with the test and control drugs. Prior to treatment, an aliquot was removed and plated for a CFU count to serve as a control. Isoniazid and metronidazole were used in the studies as comparative controls.
Recovery of aliquots for plating and the addition of drugs were conducted through septa using syringes to maintain the low-oxygen conditions. Ninety-six hours post-treatment, 1 mL of the culture was removed from the oxygen depleted cultures, the aliquot was serial diluted and the dilutions were plated. Log10 CFUs were calculated for the different treatments and concentrations. Percentage growth reduction from the controls was calculated and reported.

M. tuberculosis H37Rv [3] = assay: MIC / dose response by modified microplate Alamar Blue assay (MABA); assay type: cell-based, Mycobacterium tuberculosis; conditions: for drug concentration response curve (kill curve) type: FIG. 3; for MIC range: H37Rv and Erdman strains
M. tuberculosis H37Rv [4] = assay: Growth inhibition / time dose curves (OD600 and CFU); assay type: cell-based, Mycobacterium tuberculosis; conditions: for concentrations at which bacterial growth was inhibited: O.D. 600 nm growth curves, 5 days
M. tuberculosis H37Rv [5] = assay type: cell-based; conditions: for MIC Alone: drug alone
M. tuberculosis Erdman = assay type: in vivo; conditions: 50 mg/kg b.i.d. (Inh q.d.); for Log10CFU Lungs / Log10CFU Spleen: day 15
M. tuberculosis W210 = assay: microbe, parasite or virus in culture; assay type: cell-based, Mycobacterium tuberculosis
M. tuberculosis NHN20 = assay: microbe, parasite or virus in culture; assay type: cell-based, Mycobacterium tuberculosis
M. tuberculosis NHN382 = assay: microbe, parasite or virus in culture; assay type: cell-based, Mycobacterium tuberculosis
[6] = Oxidative metabolic lability in mouse liver microsomes; conditions: 5 μM, 1 mg/mL microsomal protein, 20 min
Description: (§2) Microsomal fractions were prepared in the Drug Disposition Domain at DSAR Montpellier (371 rue du Pr. J. Blayac, 34184 Montpellier Cedex 04, France). […] The flavin-containing monooxygenases (FMO)-dependent reactions were run in the presence of bovine serum albumin (BSA, 0.1%) for the duration of 0 and 20 min (with or without microsomal proteins and/or cofactors). […] Following protein precipitation with acetonitrile and their removal by centrifugation, supernatant fluids were analyzed by LC/MS-MS.
(§3) Thermo Finnigan TSQ Quantum Ultra instrument, ESI positive ion ionization mode. Each compound is studied in duplicates. Results are expressed in percentage of lability (or total metabolism). Total metabolism=[1−(UC_Peak Area+Cofactor at T20)/(UC_Peak Area Reference at T0)]×100
(§4) The reactions were prepared as described and were run in the presence of bovine scrum albumin (BSA, 0.1%) for the duration of 0 and 20 min (with or without microsomal proteins and/or cofactors). Enzyme activity was stopped, the protein was precipitated and removed by centrifugation. The supernatant fluids were analyzed by LC/MS-MS. […] A Thermo Finnigan TSQ Quantum Ultra instrument, ESI positive ion ionization mode was used for MS/MS. Each compound was studied in duplicates. Results are expressed in percentage of lability (or total metabolism) using the following formula: Total metabolism=[1−(UC_Peak Area+Cofactor at T20)/(UC_Peak Area Reference at T0)]×100 where UC=Unchanged Compound; “Reference” sample was NADPH for liver microsomal preparation.

[7] = Oxidative metabolic lability in human liver microsomes; conditions: 5 μM, 1 mg/mL microsomal protein, 20 min
Description: as §2, §3, §4

Vero cells = assay: Cytotoxicity assay (resazurin, 72 h); assay type: cell-based
Description: The cytotoxicity assay was performed as described previously^16. Briefly compounds were serially diluted in 96 well plates.

M. tuberculosis TN587 = assay: microbe, parasite or virus in culture; assay type: cell-based, Mycobacterium tuberculosis

## COc1ccc(C(=O)Nc2cc3nc(C4CCCCC4)[nH]c3cc2N(C)C)cc1 [SB-P17G-A16]
[1]; Table A
  Curve: Sigmoid
  MIC: .31
M. tuberculosis
  Efficacy Lung: Yes
  Efficacy Spleen: Yes

## Cc1ncc([N+](=O)[O-])n1CCO [Metronidazole, reference compound]
[2]
  Log10 (CFU+/−SD): 4.83 ± 0.06
  % Growth Reduction: 70%
  Log10 (CFU) Reduction: 0.52

## CC(C)(C)c1ccc(C(=O)Nc2cc3nc(C4CCCCC4)[nH]c3cc2SCc2ccccc2)cc1 [SB-P26H8]
[1]; Table B
  Curve: Zonal
  MIC: 25

## CCN(CC)c1cc2[nH]c(C3CCCCC3)nc2cc1NC(=O)c1ccc(OC)cc1.O=C(O)/C=C/C(=O)O [SB-P1G10-FUM]
[1]; Table B
  Curve: Zonal
  MIC: 6.25

## Cc1ccc(C(=O)Nc2cc3nc(Cc4ccccc4)[nH]c3cc2N(C)C)cc1 [SB-P27A9]
[1]; Table B
  Curve: Zonal
  MIC: 12.5

## O=C(Nc1cc2nc(C3CCCCC3)[nH]c2cc1N1CCCC1)OCc1ccccc1 [SBP8B4]
[1]; Table A
  Curve: Sigmoid
  MIC: 3.13
M. tuberculosis
  Efficacy Lung: None
  Efficacy Spleen: None

## C=Cc1cccc(C(=O)Nc2cc3nc(C4CCCCC4)[nH]c3cc2N(CC)CC)c1 [SB-P1G-A21]
[1]; Table B
  Curve: Zonal
  MIC: 25

## CCCCOC(=O)Nc1cc2nc(C3CCCCC3)[nH]c2cc1N1CCCC1 [SB-P8B2]
M. tuberculosis H37Rv [3]
  drug concentration response curve (kill curve) type: sigmoidal kill curves
  MIC range: 0.39 to 0.78 µg/mL
M. tuberculosis H37Rv [4]
  concentrations at which bacterial growth was inhibited: > 0.31 µg/mL
[2]
  Log10 (CFU+/−SD): 4.96 ± 0.18
  % Growth Reduction: 59%
  Log10 (CFU) Reduction: 0.39
M. tuberculosis H37Rv [5]; SB-P8B2 with rifampicin
  MIC In Combination: 0.1 × MIC
  enhancement of activity in the presence of the other drug: 8 fold
  ΣFIC: 0.63
M. tuberculosis H37Rv [5]
  MIC Alone: 1 × MIC
[1]; Table A
  Curve: Sigmoid
  MIC: .625
M. tuberculosis
  Efficacy Lung: Yes (.243)
  Efficacy Spleen: No

## Cc1ccc(C(=O)Nc2cc3nc(C4CCCCC4)[nH]c3cc2Oc2ccc(F)cc2)cc1 [SB-P26D9]
[1]; Table B
  Curve: Zonal
  MIC: 1.56

## CCN(CC)c1cc2[nH]c(C3CCCCC3)nc2cc1NC(=O)c1cnccn1 [SB-P1G-A12]
[1]; Table B
  Curve: Zonal
  MIC: 12.5

## COc1ccc(C(=O)Nc2cc3nc(C4CCCCC4)[nH]c3cc2Oc2ccc(F)cc2)cc1 [SB-P23D8]
[1]; Table B
  Curve: Zonal
  MIC: 3.13

## CC(C)(C)c1ccc(C(=O)Nc2cc3nc(C4CCCCC4)[nH]c3cc2Sc2ccccc2)cc1 [SB-P26F8]
[1]; Table B
  Curve: Zonal
  MIC: 25

## CO[C@H]1/C=C/O[C@@]2(C)Oc3c(C)c(O)c4c(O)c(c(/C=N/N5CCN(C)CC5)c(O)c4c3C2=O)NC(=O)/C(C)=C\C=C\[C@H](C)[C@H](O)[C@@H](C)[C@@H](O)[C@@H](C)[C@H](OC(C)=O)[C@@H]1C [Rifampicin, reference compound]
M. tuberculosis H37Rv [5]; SB-P8B2 with rifampicin
  MIC In Combination: 0.5 × MIC
M. tuberculosis H37Rv [5]
  MIC Alone: 1 × MIC

## CCN(CC)c1cc2[nH]c(C3CCCCC3)nc2cc1NC(=O)c1ccc(OC)cc1 [SB-P1G10]
M. tuberculosis H37Rv [3]
  drug concentration response curve (kill curve) type: narrow range of concentrations of effective bactericidal activity (NREBA) kill curve
  MIC range: 3 to 6.25 µg/mL
M. tuberculosis H37Rv [3]; drug concentration response curve
  concentration range of bactericidal activity: 0.5-4 fold of MIC
M. tuberculosis H37Rv [4]
  concentrations at which bacterial growth was inhibited: none of the concentrations tested
[1]; Table A
  Curve: Zonal
  MIC: 3.13-6.25
M. tuberculosis
  Efficacy Lung: No
  Efficacy Spleen: No
M. tuberculosis; any animal model of infection conducted
  bacterial load in the lungs or spleen: never reduced the bacterial load

## CN(C)c1cc2[nH]c(C3CCCCC3)nc2cc1NC(=O)OCc1ccccc1 [SB-P17G-C4]
[1]; Table B
  Curve: Zonal
  MIC: 12.5

## CCCOCC(=O)Nc1cc2nc(C3CCCCC3)[nH]c2cc1N1CCCC1 [SB-P6B-A3]
[1]; Table B
  Curve: Zonal
  MIC: 12.5

## CCN(CC)c1cc2[nH]c(C3CCCCC3)nc2cc1NC(=O)c1ccc(N(C)C)cc1 [SB-P1G-A11]
[1]; Table B
  Curve: Zonal
  MIC: 12.5

## CCC(CC)c1nc2cc(NC(=O)c3ccccc3OC)c(N(C)C)cc2[nH]1 [SB-P27C7]
[1]; Table B
  Curve: Zonal
  MIC: 6.25

## CCc1ccc(C(=O)Nc2cc3nc(C4CCCCC4)[nH]c3cc2N(CC)CC)cc1 [SB-P1G-A17]
[1]; Table B
  Curve: Zonal
  MIC: 1.56

## Cc1ccc(C(=O)Nc2cc3nc(C4CCCCC4)[nH]c3cc2Sc2ccccc2)cc1 [SB-P26F9]
[1]; Table B
  Curve: Zonal
  MIC: 6.25

## CN(C)c1cc2[nH]c(C3CCCCC3)nc2cc1NC(=O)c1ccc(OC(F)(F)F)c(F)c1F [SB-P17G-A33]
M. tuberculosis Erdman; IP
  Δ Lungs (difference between means of Test and Control Groups): −2.10** Log10 CFU
  Δ Spleen (difference between means of Test and Control Groups): −3.36*** Log10 CFU
  Log10CFU Lungs: 4.59 ± 0.71 Log10 CFU
  Log10CFU Spleen: 1.60 ± .0 Log10 CFU
M. tuberculosis Erdman; PO
  Δ Lungs (difference between means of Test and Control Groups): −1.72*** Log10 CFU
  Δ Spleen (difference between means of Test and Control Groups): −2.49*** Log10 CFU
  Log10CFU Lungs: 4.58 ± 0.21 Log10 CFU
  Log10CFU Spleen: 1.40 ± 1.24 Log10 CFU
M. tuberculosis W210
  MIC: 0.47 ± 0.22 µg/mL (≈ 0.974 µM)
M. tuberculosis H37Rv [3]; H37Rv
  MIC: 0.39 ± 0.16 µg/mL (≈ 0.808 µM)
M. tuberculosis H37Rv [4]; 1×MIC, day 2
  reduction in number of viable bacteria: 0.8-1.7 Log10 CFU
M. tuberculosis NHN20
  MIC: 0.39 ± 0.33 µg/mL (≈ 0.808 µM)
M. tuberculosis NHN382
  MIC: 0.37 ± 0.24 µg/mL (≈ 0.767 µM)
[6]
  Liver Microsome Lability Mouse: 17%
[1]; Table A
  Curve: Sigmoid
  MIC: .5-.625
[7]
  Liver Microsome Lability Human: 5%
M. tuberculosis
  Efficacy Lung: Yes
  Efficacy Spleen: Yes
Vero cells; 72 h
  Vero Cells (cytotoxicity IC50): >200 µg/mL
Vero cells; at 200 μg/mL
  cytotoxicity in Vero cells: not cytotoxic; also recorded: non-toxic
M. tuberculosis TN587
  MIC: 0.31 ± 0 µg/mL (≈ 0.643 µM)

## CCCN(CCC)c1cc2[nH]c(C3CCCCC3)nc2cc1NC(=O)OCCOCC [SB-oli-C8]
[1]; Table B
  Curve: Zonal
  MIC: 6.25
